Earlier results on 25 molecules are cited in patent US20050003341A1, “Drug discovery assays based on the biology of atherosclerosis, cancer, and alopecia” (priority 2003, published 2005).

For one data set, the system named is U937. The following applies: p<0.05.
Data set [1] concerns TF.
Another data set has as its system AT1-receptor. The following applies: 25 mg/kg/day.
The test system of the next data set is apoE(−/−) mice. The settings on record: aortic sinus, 48 hours post injection.
Data set [2] relates to TF. The settings on record: cells incubated with AGE-alb.
In another data set the test system is AR gene. The following applies: 10^−8 M.
In data set [3] the test system is leukocytes. The following applies: 5-20 mg/kg/day, oral.
Data set [4] relates to TF. The following applies: THP-1.
Data set [5] concerns leukocytes. The following applies: 0.1 and 1 mM, similar in vitro assay.
In data set [6] the test system is TF. The settings on record: Western blotting; untreated smokers 2.3±0.7. On the technique in general: In western blotting, separated proteins are transferred to a membrane and probed.
Data set [7] concerns TF. The following applies: cultured monocytes.
In data set [8] the test system is ACE. The following applies: for total lesion area compared to placebo: zofenopril 0.05 or 1, captopril 5, enalapril 0.5 mg/kg/day.
The subject of data set [9] is TF. The following applies: mononuclear leukocytes exposed to endotoxin.
Data set [10] has as its system ACE. The following applies: after 6 weeks.
Data set [11] has as its system ACE. The following applies: 5 mg/day vs placebo, 4 years.
The next data set relates to CD18. The following applies: neutrophils, 10^−8 M for 10 min.
The test system of the next data set is TF antigen. The settings on record: starting on day 3, significant on day 28.
Data set [12] has as its system NF-κB.
For data set [13], the system named is NF-κB. The source holds these as a separate data set.
In data set [14] the test system is ACE.
Data set [15] relates to ACE. The settings on record: 5 or 10 mg/day vs placebo, 4 years.
Data set [16] deals with ACE. This is another data set of the same source.
A further data set relates to TF mRNA. The settings on record: obese mice, 10 to 20 weeks of age.
For data set [17], the system named is ACE. The following applies: 0.5 mg/kg/day, p<0.05.
For the next data set, the system named is VCAM-1. The following applies: 36 dyn/cm^2; 7.0-13.99 minutes.
The subject of a further data set is U251.3 glioma cells. The following applies: 3-100 μg/ml, dose dependently.
The next data set relates to ERK. The following applies: a variety of cells, cited studies.
The test system of the next data set is isolated hair follicles. The settings on record: Philpott 1996.
The subject of another data set is CD40. The settings on record: concentration- and time-dependent.

Read-outs that look alike come from different tables or passages of the source.

`CC(C)CCC[C@@H](C)[C@H]1CC[C@H]2[C@@H]3C(=O)C=C4C[C@@H](O)CC[C@]4(C)[C@H]3CC[C@]12C` [7-ketocholesterol]: in the data set on U937, the “GSH content compared to controls” value is given as “lower GSH content”.

In the case of `CC1=C(/C=C/C(C)=C/C=C/C(C)=C/C(=O)O)C(C)(C)CCC1` [ATRA, all-trans retinoic acid], the “rate of TF transcription, nuclear run-on” value in the data set on TF [1] (LPS 10 μg/ml 1 hour, ATRA 10^−5 mol/L 30 minutes before LPS) is listed as “decreased TF transcription”. In addition, the “TF mRNA” value in the data set on TF [1] (THP-1, 30 minutes, 10^−5 mol/L) is given as “decrease”. In the data set with TF [1] (pTF(−2106)LUC transfected THP-1, 30 minutes, 10^−5 mol/L), the “LUC activity relative to untreated cells” value is “no decrease”.

As to `CCCCc1cc(C(=O)OC)cc(=O)n1Cc1ccc(-c2ccccc2-c2nnn[nH]2)cc1F` [Bay 10-6734], the “fat-stained area in the aorta” value in the data set on AT1-receptor (controls 28.6±7.5%) was 5.3±1.4%. In addition, the “% of macrophage stained area/total plaque cross sectional area” value with AT1-receptor (controls 58.8±15%) was 1±0.2%.

For `CCCCCCCCCCCCCCCC(=O)OC[C@H](COP(=O)([O-])OCC[N+](C)(C)C)OC(=O)CCCCCCCCCCCCCCC` [DPPC, dipalmitoylphosphatidylcholine], the macrophage content in the data set with apoE(−/−) mice (saline 10.4±3.4) is given as 9.3±5.8 % of plaque area. Further, in the data set with apoE(−/−) mice (saline 19.6±6.3), the lipid content is on record as 18.1±4.7 % of plaque area.

In the case of `CC(=O)N[C@@H](CS)C(=O)O` [NAC, N-acetylcysteine], in the data set with TF [2], the TF activity result was “concentration dependent inhibition”.

On to `C[C@]1(O)CC[C@H]2[C@@H]3CCC4=CC(=O)CCC4=C3C=C[C@@]21C` [R1881, methyltrienolone], for which the entries for the “transcription of the endogenous AR gene, of control levels” value with AR gene (8 hours) and with AR gene (24 hours) were 85% and 73%, respectively.

For the molecule `CC(=O)Oc1ccccc1C(=O)O` [aspirin, Acetylsalicylic Acid], the “increase in leukocyte migration relative to control values” in the data set on leukocytes [3] is 20-70%. The “LPS-induced translocation of c-Rel/p65” value in the data set with TF [4] was “inhibited”. For the same molecule, the “migration of human lymphocytes” value in the data set with leukocytes [5] is “stimulated migration”. The “increase in TF concentration compared to non-smoker mice” value with TF [6] is listed as 1.3±0.17 fold.

Regarding `C[C@H](CS)C(=O)N1CCC[C@H]1C(=O)O` [captopril], in the data set with hamsters (controls 130±5), the “cell size of macrophage derived foam cells” value is recorded as “did not change”. In addition, the heart rate in the data set with hamsters (controls 376±6) was 348+6 beats/min. For the same molecule, the “decrease in fatty streak area” value in the data set on hamsters (p=0.092 pravastatin, p=0.056 captopril) is 35%. In the data set on TF [7], the “TF antigen and mRNA” value is on record as “decreased”. In addition, the “total lesion area compared to placebo” value in the data set on ACE [8] was “significantly decreased”. Moreover, in the data set with TF [9], the “increase in TF mRNA” value was “inhibited”. Besides, the “number of subendothelial macrophage derived foam cells” value in the data set on ACE [10] (week 4: 87±9, p<0.05) was 52±9 cell/mm^2. In addition, in the data set with ACE [10] (week 4: 113±8, p<0.05), the “average size of a foam cell” value is recorded as 89±5 μm^2. Further, the “area of fatty streak” value in the data set on ACE [10] (week 4: 125±18, p<0.05) was 55±12 μm2×1,000. Besides, the “area of extracellular lipid particles” value in the data set on ACE [10] (week 4: 144±27, not significant) is 157±36 μm2×1,000.

Consider `CCOC(=O)[C@H](CCc1ccccc1)N[C@@H](C)C(=O)N1CCC[C@H]1C(=O)O` [enalapril], for which the “total lesion area compared to placebo” value in the data set with ACE [8] is recorded as “no significant decrease”. Besides, the “changes in mean absolute diameter, minimum absolute diameter, percent diameter stenosis” value in the data set on ACE [11] was “no significant difference”.

Regarding `CSCC[C@H](NC=O)C(=O)N[C@@H](CC(C)C)C(=O)N[C@@H](Cc1ccccc1)C(=O)O` [fMLP, N-formylmethionyl-leucyl-phenylalanine], the “increase in CD18 surface membrane concentration compared to unstimulated cells” value in the data set on CD18 was 4 fold.

Regarding `CCCCc1nc(Cl)c(CO)n1Cc1ccc(-c2ccccc2-c2nn[nH]n2)cc1` [losartan], in the data set with TF antigen, the “effect on plasma TF antigen levels” value was “negative effect”.

Take `CC[C@H](C)C(=O)O[C@H]1CCC=C2C=C[C@H](C)[C@H](CC[C@@H]3C[C@@H](O)CC(=O)O3)[C@H]21` [mevastatin]: the NF-κB activation entry in the data set on NF-κB [12] (EC) was “inhibited”.

`O=C(O)C[C@H](O)C[C@H](O)/C=C/c1c(C2CC2)nc2ccccc2c1-c1ccc(F)cc1` [pitavastatin]: in the data set on NF-κB [12] (human kidney 293 T-cells), the NF-κB activation result is “inhibited”.

Regarding `CCOC(=O)[C@H](CCc1ccccc1)N[C@@H](C)C(=O)N1Cc2ccccc2C[C@H]1C(=O)O` [quinapril], in the data set with NF-κB [13] (rabbit femoral arteries), the “NF-κB activity in atherosclerotic vessels” value is given as “decreased”.

Consider `CCOC(=O)[C@H](CCc1ccccc1)N[C@@H](C)C(=O)N1[C@H](C(=O)O)C[C@@H]2CCC[C@@H]21` [ramipril], for which the “progression slope of the mean maximum carotid intimal medial thickness (IMT)” value in the data set with ACE [14] (10 mg/day, placebo 0.0217±0.0027, p=0.0033) is listed as 0.0137±0.0024 mm/year. For the same molecule, the “decrease in progression of carotid intima media thickness” value with ACE [14] (at 4.5 years) is recorded as 0.008 mm per year. Further, the “changes in thickness of the common carotid artery wall, or carotid plaque height” value in the data set on ACE [15] is “no significant difference”. For the same molecule, the “rate of death from cardiovascular causes” value in the data set with ACE [16] (10 mg/day, 4.5 years, placebo 8.1%) is 6.1%. In addition, the “rate of cardiac arrest” value with ACE [16] (placebo 1.3%) is listed as 0.8%. Also, the rate of stroke in the data set with ACE [16] (placebo 4.9%) is on record as 3.4%. In addition, in the data set on ACE [16] (placebo 7.6%), the “rate of complications related to diabetes” value was 6.4%. Moreover, the “rate of heart failure” value in the data set with ACE [16] (placebo 11.6%) is on record as 9.1%. Besides, the “rate of death from any cause” value with ACE [16] (placebo 12.2%) is reported as 10.4%. Moreover, in the data set on ACE [16] (placebo 12.3%), the “rate of myocardial infarction” value was 9.9%. Moreover, in the data set with ACE [16] (placebo 18.8%), the “rate of revascularization procedures” value was 16.3%. In the data set with ACE [16] (vs placebo), the “RR, cardiac arrest” value is listed as 0.62; the “RR, complications related to diabetes” value was 0.84; the “RR, death from any cause” value is listed as 0.84; the “RR, death from cardiovascular causes” value is 0.74. In the data set on ACE [16] (vs placebo), the “RR, heart failure” value is listed as 0.77; the “RR, myocardial infarction” value was 0.80; the “RR, revascularization procedures” value was 0.85; the “RR, stroke” value is given as 0.68.

For the molecule `CCOC(=O)[C@H](CCc1ccccc1)N[C@H]1CS[C@H](c2cccs2)CN(CC(=O)O)C1=O` [temocapril], the “increase in TF mRNA” value with TF mRNA was “attenuated”.

With `C[C@H](CSC(=O)c1ccccc1)C(=O)N1C[C@@H](Sc2ccccc2)C[C@H]1C(=O)O` [zofenopril], in the data set with ACE [17], the “decrease in aortic corrected cumulative lesion area” value is 34% and the “decrease in common carotid corrected cumulative lesion area” value is reported as 39%. Also, in the data set with ACE [8] (1 mg/kg/day), the “macrophage-derived foam cells staining in the intima” value is reported as “significant decrease” and the “native LDL staining in the intima” value is on record as “significant decrease”. Also, in the data set on ACE [8], the “total lesion area compared to placebo” value is “significantly decreased”.

Regarding `NCCCCCC(=O)O` [ε-ACA], in the data set on fibronectin, the “Lp(a) binding to fibronectin” value was “not effective” and the “plasminogen binding to fibronectin” value was “inhibited”.

For the molecule MCP-1: a chemokine, the “average percent of monocyte remaining bound” value in the data set on VCAM-1 was 46%.

Turning to TNC: large ECM glycoprotein, in the data set with U251.3 glioma cells, the migration distance result is listed as “increased migration distance”.

For the molecule TNFα, the ERK phosphorylation result in the data set on ERK was “increase”. Moreover, the scalp hair growth result with isolated hair follicles is reported as “inhibition”.

As to “angiotensin II: angiotensin II (DRVYIHPF; Angiotensin-2; UniProt P01019 25-32, looked up)”, the “TF antigen and mRNA” value in the data set on TF [7] is recorded as “dose-depended increase”. The NF-κB activation entry with NF-κB [13] (cultured monocytes and VSMC) is reported as “increased”.

Consider apo(a): apolipoprotein(a), for which the “plasminogen binding to fibronectin” value in the data set on fibronectin is “completely abolished”.

B1: CD40L: ligand of CD40, native or recombinant human (protein, UniProt P29965 113-261, looked up)
CD40 ligand, soluble form: MQKGDQNPQIAAHVISEASSKTTSVLQWAEKGYYTMSNNLVTLENGKQLTVKRQGLYYIYAQVTFCSNREASSQAPFIASLCLKSPGRFERILLRAANTHSSAKPCGQQSIHLGGVFELQPGASVFVNVTDPSQVSHGTGFTSFGLLKL
Turning to B1, in the data set on CD40, the “TF expression on the surface of cultured human vascular SMC” value is “transient increase”.

B2: IL-1a: interleukin 1α (protein, UniProt P01583 113-271, looked up)
Interleukin-1 alpha: SAPFSFLSNVKYNFMRIIKYEFILNDALNQSIIRANDQYLTAAALHNLDEAVKFDMGAYKSSKDDAKITVILRISKTQLYVTAQDEDQPVLLKEMPEIPKTITGSETNLLFFWETHGTKNYFTSVAHPNLFIATKQDYWVCLAGGPPSITDFQILENQA
B2: in the data set with isolated hair follicles, the scalp hair growth result is listed as “inhibition”.
